{
  "source": "patent US11643405B2",
  "about": "“Compound for treatment or prevention of liver diseases” (JIANGSU ATOM BIOSCIENCE AND PHARMACEUTICAL CO., LTD., priority 2018, dated 2023)",
  "key": {"[1]": {"test_system": "zebrafish non-alcoholic fatty liver", "experiment": "Fat reduction or elimination effect on thioacetamide-induced zebrafish non-alcoholic fatty liver (Oil Red O staining)", "assay_type": "in vivo", "conditions": "for The total optical density of liver fat: mean ± SE, n = 10", "experimental": "40 mM stock solution of test compounds 4, 5, 6, 7, 46, 67, 78, 85, 92 and 101 were prepared with DMSO, and stored in a refrigerator at −20° C. The positive control compound S-adenosylmethionine (SAM) was purchased from Aladdin Reagent (Shanghai) Co., Ltd., with the batch number F1523051, which was prepared into a 50 mM stock solution with DMSO. The control compound silymarin was purchased from Shanghai Dibai Biotechnology Co., Ltd., with the batch number EE09, which was prepared into a 40 mM stock solution with DMSO. Thioacetamide was purchased from Sigma-Aldrich, with the batch number BCBV3031, which wasprepared into a 1 M stock solution with DMSO. Oil Red O was purchased from Sigma-Aldrich, with the batch number SLBP5248V. 4% paraformaldehyde was purchased from Dingguo Biotechnology Co., Ltd., with the batch number 773001800. Propylene glycol was purchased from Sinopharm Chemical Reagent Co., Ltd., with the batch number 20170615.\nThe melanin allele mutant translucent Albino line zebrafish was reproduced in natural paired mating. The fish age was 3 days after fertilization, with 30 fish per experimental group.\nThe above zebrafish were raised in fish farming water at 28° C. (water quality: 200 mg instant sea salt was added to 1 L of reverse osmosis water, conductivity was 480-510 μS/cm; pH was 6.9-7.2; hardness was 53.7-71.6 mg/L CaCOs), the experimental animal use license number was: SYXK (Zhejiang) 2012-0171. Feeding management met the requirements of international AAALAC certification.\nThree days after fertilization, the normal melanin allele mutant translucent Albino strain of zebrafish was randomly selected and placed in a six well plate with 30 fish per well (i.e. each experimental group), and then thioacetamide with the final concentration of 7 mM was used to treat zebrafish for 72 hours to establish the non-alcoholic fatty liver model.\nThe zebrafish were transferred to a six-well plate, with 30 fish per well (i.e., each experimental group) randomly. Non-alcoholic fatty liver model in zebrafish were induced by thioacetamide. 40 mM test compounds 4, 5, 6, 7, 46, 67, 78, 85, 92 and 101 were quantitatively transferred to a six-well plate, and diluted with water to the corresponding concentration. Test compounds 4, 5, 6 and 7 were formulated into two dose groups with final concentration of 100 μM and 200 μM, respectively; test compound 46 was formulated into a dose group with final concentration of 200 μM; test compounds 67, 78, 85, 92 and 101 were formulated into dose groups with a final concentration of 100 μM; 50 mM positive control SAM was formulated with water to a dose group with final concentration of 50 μM, and a 40 mM positive control silymarin was formulated with water to two concentration dose groups with final concentration of 100 μM and 200 μM. A normal control group (zebrafish treated with fish farming water) and a model control group were set at the same time, and the total volume of each well was 3 mL. Except for the normal control group, the other experimental groups were treated with thioacetamide for 72 hours and stained with Oil Red O. After staining, 10 zebrafish were randomly selected from each experimental group and photographed under a dissecting microscope, NIS-Elements D 3.10 advanced image processing software was used to perform image analysis and collect data, the total optical density (S) of zebrafish liver fat was statistically analyzed, and for the inhibitory effect of each experimental group on liver steatosis of zebrafishwas evaluated by the following formula, the results of statistical analysis were expressed as mean±SE: Inhibition rate of liver steatosis (%)=[S(model control group)−S(test compound group)]/[S(model control group)−S(normal control group)]×100%\nStatistical analysis was performed using analysis of variance and Dunnett's T-test, and p<0.05 indicated a significant difference. […]"}, "[2]": {"experiment": "Determination of compound solubility in PBS buffer (LC-MS/MS)", "assay_type": "physicochemical", "conditions": "for solubility at 2 h: PBS buffer, aqueous buffer, kinetic from dmso stock, stirred 2 hours, read-out: Solubility", "experimental": "The test compounds were 7, 67 and 85, respectively; the control compound was silymarin, purchased from Shanghai Dibai Biotechnology Co., Ltd., with the batch number HH06. Both the test compounds and the control compound were prepared into 10 mM stock solutions using DMSO. Phosphate buffered saline (PBS), with pH of 4.0 and 7.4, was used to test the solubility of the test compounds.\nTreatment of test compound and control compound: 30 μL of test compound or control compound stock solution (10 mM) per well was added in a specially made solubility sample plate, and then 970 μL of PBS with different pH was added to each well (pH was 4.0 and 7.4, respectively). Repeated wells were set in the test. A stir bar was added to each well that was covered with a polytetrafluoroethylene or silica gel plug. Stirring was performed at 25° C. at 1100 rpm for 2 hours. 10 μL of sample was taken from each well, and then 990 μL of water and acetonitrile mixture (including internal standard substance) was added to mix well, followed by filtering with a filter plate.\nStandard treatment: 10 mM stock solution was diluted with DMSO to 300 μM, then 10 μL of compound diluent was taken, and 990 μL of water and acetonitrile mixture (including internal standard substance) was added to mix well and formulated into a standard solution with the final concentration 3 μM.\nThe solubility sample plate was placed in the autosampler and the LC-MS/MS method was used for analysis. The concentration of the test compound was calculated by the response value of the test compound and standard, and the concentration of the standard."}},
  "note": "Where two headings read alike, the source gives them in different places.",
  "data": [
    {"smiles": "COc1cc(C2Oc3cc(C4Oc5cc(O)cc(O)c5CC4O)cc(O)c3OC2CO)ccc1O", "note": "(stereo not drawn) [Compound 7, 2-{8-hydroxy-3-(4-hydroxy-3-methoxyphenyl)-2-hydroxymethyl-2,3-dihydrobenzo[b][1,4]dioxan-6-yl}chroman-3,5,7-triol]", "values": [
      {"measurement": "Therapeutic effect on non-alcoholic fatty liver of zebrafish (in words)", "setting": "[1]; 100 μM", "result": "significant therapeutic effects"},
      {"measurement": "The total optical density of liver fat", "setting": "[1]; 100 μM", "result": "17835 ± 351", "unit": "Pixels"},
      {"measurement": "Therapeutic effect on zebrafish non-alcoholic fatty liver (in words)", "setting": "[1]; 200 μM", "result": "significant therapeutic effect"},
      {"measurement": "The total optical density of liver fat", "setting": "[1]; 200 μM", "result": "18090 ± 437", "unit": "Pixels"},
      {"measurement": "inhibition at 100 µM", "setting": "[1]; Danio rerio, 100 μM, read-out: Inhibition rate of liver steatosis", "result": 98, "unit": "%"},
      {"measurement": "inhibition at 200 µM", "setting": "[1]; Danio rerio, 200 μM, read-out: Inhibition rate of liver steatosis", "result": 93, "unit": "%"},
      {"measurement": "solubility at 2 h", "setting": "[2]; PBS pH = 4.0, 25° C.", "result": 209, "unit": "µM"},
      {"measurement": "solubility at 2 h", "setting": "[2]; PBS pH = 7.4, 25° C.", "result": 214, "unit": "µM"},
      {"measurement": "Solubility in PBS buffer solution compared with silymarin (in words)", "setting": "[2]; pH 4.0 and 7.4", "result": "significantly higher than that of silymarin"}
    ]}
  ]
}
